Values joined by “and” are separate entries in the source; they are usually repeats but may differ in a detail not shown here. Equal values may be shown once. Read-outs that look alike come from different tables or passages of the source. Blank lines part the entries; values can stand above or below the molecule they belong to.
What was measured:
[1] = target: T1, human NTSR2 (Homo sapiens, UniProt O95665); assay: NTSR2 competition binding, membranes of transiently transfected HEK 293T cells, [3H]NT(8-13); details: human NTSR2, HEK 293T membranes, [3H]NT(8-13) 0.50 nM; mean ± SEM
T1 construct: host or cells: HEK 293T cells, transient transfection
Protocol: (§1) Radioligand binding experiments with the NTSR1 and NTSR2 receptor subtypes were performed as described previously. […] NTSR2 binding was measured using homogenates of membranes from HEK 293T cells, which were transiently transfected with DNA encoding the human NTSR2 (cDNA Resource Center, Bloomsberg, PA, USA) using the Mirus TransIT-293 transfection reagent (Peqlab, Erlangen, Germany). […] Nonspecific binding was determined in the presence of 10 μM NT(8-13), protein concentration was determined by the method of Lowry using bovine serum albumin as a standard. A data analysis of the radioligand displacement curves was accomplished by non-linear regression analysis using the algorithms in PRISM 9.0 (GraphPad Software, San Diego, CA, USA). EC50 values derived from the resulting dose response curves were transformed into the corresponding Ki values applying the equation of Cheng and Prusoff.

[2] = target: human NTSR1 (Homo sapiens, UniProt P30989); assay: NTSR1 competition binding, membranes of CHO cells stably expressing human NTSR1, [3H]neurotensin; details: [3H]neurotensin 0.50 nM, mean ± SEM ([natRe]2: ± SD, n = 2)
Protocol: as §1

[3] = tested on: NTSR1-positive HT-29 cells; assay: Competitive cellular uptake assay; format: cell-based; details: Homo sapiens, 37 °C, 1 h
Protocol: For the determination of the IC50 values, 8–10 concentrations of FAUC468 were used. The HT-29 cells were seeded on the day of the experiment in a 96-well-plate (~500.000 cells per well in 200 µL cell medium) and were incubated in a humidified atmosphere at 37 °C containing 5% CO2. Subsequently, the 96-well-plate was centrifuged at 850 rpm for 2 min following aspiration of the cell medium. The cells were washed with cell medium (200 µL), the plate was centrifuged at 850 rpm for 2 min, and the supernatant was aspirated. The incubation solutions (0.009–900 nM FAUC468 in 90 µL cell medium per well) and the respective radiotracer (10 µL, 100 kBq per well) were given to the wells, and the plates were incubated at 37 °C for 1 h. After the incubation time, the plate was centrifuged at 850 rpm for 2 min. The supernatant was removed, followed by two washing steps with the cell medium (200 µL) and PBS (200 µL). Sodium hydroxide solution (200 µL, 2 M, 37 °C) was added, and after 7 min, solutions of the cell homogenates were transferred into tubes, which were measured for radioactivity in a γ-counter (Wallac Wizard, Perkin Elmer, Waltham, MA, USA). […]

[4] = tested on: HT-29 cells; details: cited from earlier work
[5] = target: NTSR2; parameters: method as in PMID 33268796; details: cited from earlier work
[6] = target: NTSR1; parameters: method as in PMID 33268796; details: cited from earlier work

human NTSR1, sequence (P30989 whole entry): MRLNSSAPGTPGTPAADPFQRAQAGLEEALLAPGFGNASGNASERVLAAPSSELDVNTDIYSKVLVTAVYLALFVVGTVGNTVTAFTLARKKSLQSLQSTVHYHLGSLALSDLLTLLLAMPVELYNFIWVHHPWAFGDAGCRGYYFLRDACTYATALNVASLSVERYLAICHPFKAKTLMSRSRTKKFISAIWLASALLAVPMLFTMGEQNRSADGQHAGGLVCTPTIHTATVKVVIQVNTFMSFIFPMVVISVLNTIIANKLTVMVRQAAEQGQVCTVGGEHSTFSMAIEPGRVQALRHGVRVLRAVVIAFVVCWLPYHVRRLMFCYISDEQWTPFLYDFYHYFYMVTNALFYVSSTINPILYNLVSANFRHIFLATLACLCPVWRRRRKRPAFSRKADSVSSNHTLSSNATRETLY
T1 sequence (O95665 whole entry): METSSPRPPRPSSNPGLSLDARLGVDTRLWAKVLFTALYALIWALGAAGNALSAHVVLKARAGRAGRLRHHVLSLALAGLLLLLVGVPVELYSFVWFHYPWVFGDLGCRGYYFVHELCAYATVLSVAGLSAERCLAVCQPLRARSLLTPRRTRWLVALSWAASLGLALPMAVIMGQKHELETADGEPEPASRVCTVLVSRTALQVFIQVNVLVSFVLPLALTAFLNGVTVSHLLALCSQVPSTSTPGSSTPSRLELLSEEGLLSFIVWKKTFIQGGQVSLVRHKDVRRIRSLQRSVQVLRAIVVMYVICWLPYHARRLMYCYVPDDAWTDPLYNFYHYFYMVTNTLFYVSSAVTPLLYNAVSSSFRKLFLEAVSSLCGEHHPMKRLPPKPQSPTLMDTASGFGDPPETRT

Molecule: COc1cccc(OC)c1-c1cc(C(=O)NC2(C(=O)O)C3CC4CC(C3)CC2C4)nn1-c1ccc(-c2cn(CCCN(C)CCCNC(=O)CN3CCN(CC(=O)O)CCN(CC(=O)O)CCN(CC(=O)O)CC3)nn2)cc1C(C)C (centres unmarked) [FAUC468]
Ki [2]: 1.9 ± 0.7 nM | IC50 ([3]; radiotracer [99mTc]1, read-out: IC50 of FAUC468 for the displacement of [99mTc]1): 1.93 nM | IC50 ([3]; radiotracer [99mTc]2, read-out: IC50 of FAUC468 for the displacement of [99mTc]2): 3.12 nM | Ki [1]: 100 ± 3 nM

Molecule: COc1cccc(OC)c1-c1cc(C(=O)NC2(C(=O)O)C3CC4CC(C3)CC2C4)nn1-c1ccnc2cc(Cl)ccc12 (centres unmarked) [SR 48692]
IC50 ([4]; [125I-Tyr3]NT(8-13) as radioligand): 30 nM

Molecule: COc1cccc(OC)c1-c1cc(C(=O)NC2(C(=O)O)C3CC4CC(C3)CC2C4)nn1-c1ccc(C(=O)N(C)CCCN(C)C)cc1C(C)C (centres unmarked) [SR 142948A]
IC50 [4]: 0.32 nM

Molecule: NTS: 13-amino-acid peptide originally isolated from bovine hypothalami
Ki [5]: 5 to 7 nM | Ki [6]: 0.15 to 0.5 nM

Next, values leading:

Ki [1]: 270 ± 94 nM
Molecule: COc1cccc(OC)c1-c1cc(C(=O)NC2(C(=O)O)C3CC4CC(C3)CC2C4)nn1-c1ccc(-c2cn(CCCN(C)CCCNC(=O)c3ccc(NN)nc3)nn2)cc1C(C)C (centres unmarked) [Compound 5, 2-(5-(2,6-Dimethoxyphenyl)-1-(4-(1-(3-((3-(6-hydrazineylnicotinamido)propyl)-(methyl)amino)propyl)-1H-1,2,3-triazol-4-yl)-2-isopropylphenyl)-1H-pyrazole-3-carboxamido)-adamantane-2-carboxylic Acid]

Ki [2]: 0.3 nM and 0.32 nM | Ki [1]: 85 ± 13 nM
Molecule: COc1cccc(OC)c1-c1cc(C(=O)NC2(C(=O)O)C3CC4CC(C3)CC2C4)nn1-c1ccc(-c2cn(CCCN(C)CCCNC(=O)CCn3cc(CC(N)C(=O)O)nn3)nn2)cc1C(C)C (centres unmarked) [Compound 6, 2-(1-(4-(1-(3-((3-(3-(4-(2-Amino-2-carboxyethyl)-1H-1,2,3-triazol-1-yl)-propanamido)propyl)(methyl)amino)propyl)-1H-1,2,3-triazol-4-yl)-2-isopropylphenyl)-5-(2,6-dimethoxyphenyl)-1H-pyrazole-3-carboxamido)adamantane-2-carboxylic Acid]

Reference: PMC12196348, “^99mTc-Labeled Diarylpyrazoles for Single-Emission Computer Tomography Imaging of Neurotensin Receptor-Positive Tumors: A Comparative Preclinical Study” (Pharmaceutics, 2025)
